Experimental data from patent US11932874B2, “Method for culturing mesenchymal stem cells using gamma-irradiated serum” (R Bio CO., Ltd., priority 2018, dated 2024).

What was measured:
Format in all cases: cell-based
[1] = system: human adipose tissue-derived stem cells; assay: Viability of stem cells cultured in 30 kGy gamma-irradiated FBS (Example 5): cell number, size, viability, doubling time; details: 30 kGy FBS, 4 days; for Cell No. / Cell size / DT / Viability: average (n = 3)
Method: Fetal bovine serum (FBS) was irradiated with 30 kGy of gamma radiation, thereby preparing gamma-irradiated FBS. Vitamin C (ascorbic acid; L-Ascorbic Acid 2-phosphate) was added to the FBS which was then irradiated with 30 kGy of gamma irradiation, thereby preparing gamma-irradiated FBS pretreated with vitamin C. The vitamin C was added to the FBS at a concentration of 1%. Then, the human adipose tissue-derived stem cells at passage 3, isolated in Example 1, were thawed and inoculated into T75 flasks at a concentration of 0.5×10^6 cells/T75 flask, and the inoculated cells were cultured with AMSC+ culture medium (R-Bio Co., Ltd.) containing the prepared gamma-irradiated FBS or gamma-irradiated FBS pretreated with vitamin C at a concentration of 5% in a CO2 incubator at 37° C. for 2 days. After 2 days of culture, the medium was removed and replaced with AMSC+ culture medium containing 5% gamma-irradiated FBS (a negative control group), medium obtained by adding vitamin C to AMSC+ culture medium containing 5% gamma-irradiated FBS (a vitamin C post-treatment test group), or medium obtained by adding vitamin C to AMSC+ culture medium containing 5% gamma-irradiated FBS pretreated with vitamin C (a vitamin C pre- and post-treatment test group) (Table 4). Vitamin C was added to the culture medium or FBS at a concentration of 1%. After 4 days of culture (FIG. 6), the cell proliferation rate, cell number, viability and doubling time of the stem cells were examined. A positive control group was also prepared as described in Example 2 above. [table]

[2] = system: human adipose tissue-derived stem cells; assay: Adhesion and proliferation rate of stem cells cultured in 30 kGy gamma-irradiated FBS over passages (Example 6); details: 30 kGy FBS
Method: Fetal bovine serum (FBS) was irradiated with 30 kGy of gamma radiation, thereby preparing gamma-irradiated FBS. The gamma-irradiated FBS was added to AMSC+ culture medium (R-Bio Co., Ltd.) at a concentration of 5%, and 1% vitamin C was added to the culture medium, thereby preparing a medium (a vitamin C post-treatment group). Then, the human adipose tissue-derived stem cells at passage 1, isolated in Example 1, were thawed and inoculated into T25 flasks at a concentration of 0.7×10^3 cells/T25 flask, and the inoculated cells were cultured with AMSC+ culture medium (R-Bio Co., Ltd.) containing the prepared gamma-irradiated FBS at a concentration of 5% in a CO2 incubator at 37° C. for 2 days. After 2 days of culture, the medium was removed and replaced with AMSC+ culture medium containing 5% normal FBS (a positive control group), or medium obtained by adding vitamin C to AMSC+ culture medium containing 5% gamma-irradiated FBS (a vitamin C post-treatment test group). Vitamin C was added to the culture medium at a concentration of 1%. […] The stem cell adhesion shown in FIGS. 11A-11C was examined with a Leica microscope, and the cell number, cell size and viability shown in Tables 6 to 9 were examined with Luna™ Automated cell counter L10001 (Logos Biosystems).

[3] = system: human adipose tissue-derived stem cells; assay: Differentiation into chondrocytes, TSP2 ELISA (Example 7); details: 30 KGy gamma radiation, post-treated with 1% vitamin C, passage 4
Method: For the positive control group and vitamin C post-treatment test group of Example 6, the purity and characteristics of the stem cells at passage 4 were examined. The purity of the stem cells was examined by analyzing the expression of CD markers using FACS (FIG. 12 and Table 10), and the characteristics of the stem cells were examined by analyzing differentiation into adipocytes, osteocytes and chondrocytes (FIGS. 13 to 15). Differentiation into adipocytes was analyzed by oil red 0 staining according to the Sigma-Aldrich protocol, and differentiation into osteocytes was analyzed by alizarin red S staining according to the Lifeline Cell Tech's protocol, and differentiation into chondrocytes was analyzed by TSP2 ELISA.

[4] = 1% Vit. C pre-treatment + 1% Vit. C post-treatment
[5] = Stem cells #1 P1, 1% vitamin C post-treatment
[6] = Stem cells #1 P2, 1% vitamin C post-treatment
[7] = Stem cells #1 P3, 1% vitamin C post-treatment
[8] = Stem cells #1 P4, 1% vitamin C post-treatment
[9] = Stem cells #2 P1, 1% vitamin C post-treatment
[10] = Stem cells #2 P2, 1% vitamin C post-treatment
[11] = Stem cells #2 P3, 1% vitamin C post-treatment
[12] = Stem cells #2 P4, 1% vitamin C post-treatment
[13] = Stem cells #3 P1, 1% vitamin C post-treatment
[14] = Stem cells #3 P2, 1% vitamin C post-treatment
[15] = Stem cells #3 P3, 1% vitamin C post-treatment
[16] = Stem cells #3 P4, 1% vitamin C post-treatment

Structure (SMILES): O=C1O[C@H]([C@@H](O)CO)C(O)=C1OP(=O)(O)O [AA2P, L-Ascorbic Acid 2-phosphate]
- Cell No. ([1]; 1% Vit. C post-treatment): 4.3 ×10^6 cells
- Cell size ([1]; 1% Vit. C post-treatment): 19.3 μm
- DT ([1]; 1% Vit. C post-treatment): 29.9 h
- Viability ([1]; 1% Vit. C post-treatment): 86.9%
- Cell No. [1, 4]: 5.7 ×10^6 cells
- Cell size [1, 4]: 20.3 μm
- DT [1, 4]: 28.1 h
- Viability [1, 4]: 86.5%
- Cell No. ([1]; 1% Vit. C pre-treatment): 5.8 ×10^6 cells
- Cell size ([1]; 1% Vit. C pre-treatment): 18.8 μm
- DT ([1]; 1% Vit. C pre-treatment): 27.6 h
- Viability ([1]; 1% Vit. C pre-treatment): 92.3%
- cell number, viability and doubling time versus positive control group ([1]; vitamin C post-treatment test group): increased to the levels of the positive control group
- adhesion, cell number, cell size and viability versus positive control group ([2]; 1% vitamin C post-treatment, stem cells at passages 2 to 4): did not differ from those of the positive control group
- Cell number [2, 5]: 2.4 × 10^7 cells
- Cell size [2, 5]: 19.1 μm
- Viability [2, 5]: 84.4%
- Cell number [2, 6]: 1.6 × 10^7 cells
- Cell size [2, 6]: 19.5 μm
- Viability [2, 6]: 83%
- Cell number [2, 7]: 2.0 × 10^7 cells
- Cell size [2, 7]: 19.2 μm
- Viability [2, 7]: 88.7%
- Cell number [2, 8]: 3.3 × 10^8 cells
- Cell size [2, 8]: 20 μm
- Viability [2, 8]: 87.5%
- Cell number [2, 9]: 1.8 × 10^7 cells
- Cell size [2, 9]: 20 μm
- Viability [2, 9]: 89.6%
- Cell number [2, 10]: 1.8 × 10^7 cells
- Cell size [2, 10]: 19.3 μm
- Viability [2, 10]: 95.5%
- Cell number [2, 11]: 1.2 × 10^7 cells
- Cell size [2, 11]: 19.7 μm
- Viability [2, 11]: 88.9%
- Cell number [2, 12]: 1.5 × 10^8 cells
- Cell size [2, 12]: 18.8 μm
- Viability [2, 12]: 95.6%
- Cell number [2, 13]: 2.3 × 10^7 cells
- Cell size [2, 13]: 19.6 μm
- Viability [2, 13]: 87.1%
- Cell number [2, 14]: 1.4 × 10^7 cells
- Cell size [2, 14]: 18 μm
- Viability [2, 14]: 82%
- Cell number [2, 15]: 1.4 × 10^7 cells
- Cell size [2, 15]: 19.3 μm
- Viability [2, 15]: 88.2%
- Cell number [2, 16]: 2.1 × 10^8 cells
- Cell size [2, 16]: 17.8 μm
- Viability [2, 16]: 88.0%
- differentiation into chondrocytes versus positive control group [3]: did not differ from those of the positive control group
